According to patent US5990170A, “Therapeutic use of mono and bicarboxylic acid amides active at the peripheral cannabinoid receptor” (Lifegroup S.p.A., priority 1994, dated 1999):
Where two headings read alike, the source gives them in different places.

Legend:
RBL-2H3 cells = test: Inhibition of 3H-serotonin release induced by ADNP/DNP-HSA immunogenic stimulation in RBL-2H3 cells; format: cell-based, rat; conditions: for inhibition at 100 µM: 100 μM (Table 8); for EC50: 15 minutes release period (Table 9); for effect of anandamide co-incubation on the ability to inhibit serotonin release: co-incubation with anandamide, in words; for functional effect following receptor activation (serotonin release): result in words; for inhibition at 12.5 µM: RBL-2H3, read-out: 3H-serotonin net release inhibition (%), 12.5 μM
[1] = Solubility in water and organic solvents; conditions: for solubility in water: result in words
[2] = Rattus norvegicus, RBL-2H3, read-out: 3H-serotonin release inhibition %, 0.2% DMSO
[3] = Rattus norvegicus, RBL-2H3, read-out: 3H-serotonin release inhibition %, 1% DMSO
[4] = Rattus norvegicus, RBL-2H3, read-out: EC50, concentration inhibiting by 50% the net release of 3H serotonin, 0.2% DMSO
[5] = Rattus norvegicus, RBL-2H3, read-out: EC50, concentration inhibiting by 50% the net release of 3H serotonin, 1% DMSO
[6] = dmso, organic solvent or mixture
[7] = ethanol, organic solvent or mixture
[8] = Rattus norvegicus, RBL-2H3, read-out: 3H-serotonin release inhibition %, 0.2% DMSO, 30 μM (Table 8)
[9] = Rattus norvegicus, RBL-2H3, 0.25 h, 100 μM, 0.1% DMSO and 0.1% ethanol (Table 3), read-out: 3H-serotonin net release (%)
[10] = chloroform, organic solvent or mixture
[11] = read-out: ED50, inhibition of 3H-serotonin release, + anandamide (12.5 μM) (Table 5), 15 min
[12] = n-octanol, organic solvent or mixture
[13] = Rattus norvegicus, RBL-2H3, 0.25 h, read-out: 3H-serotonin net release (%)
[14] = Rattus norvegicus, RBL-2H3, 0.25 h, read-out: ED50
[15] = Rattus norvegicus, + WIN 55,212-2 (30 μm) (Table 6)
[16] = Rattus norvegicus, - WIN (Table 6)

Row | SMILES | EC50 (RBL-2H3 cells; [4]) | EC50 (RBL-2H3 cells; [5]) | solubility [1, 6] | solubility [1, 7] | solubility in water [1] | also measured
1 | CCCCCCCCCCCCCCCC(=O)N[C@H](CO)c1ccccc1 [Example 2, N-palmitoyl-[(S)-2-amino-2-phenylethanol]] | 1.8 µM | 5 µM | > 10000 µg/mL | > 10000 µg/mL | scarcely soluble | inhibition at 100 µM (RBL-2H3 cells; [2]): 100%; inhibition at 100 µM (RBL-2H3 cells; [3]): 100%
2 | CCCCCCCCCCCCCCCC(=O)NCC(O)c1ccccc1 (centres unmarked) [Example 3, N-(2-hydroxy-2-phenylethyl)-palmitoylamide] | 1.2 µM | 4 µM | > 10000 µg/mL | > 10000 µg/mL | scarcely soluble | inhibition at 100 µM (RBL-2H3 cells; [2]): 100%; inhibition at 100 µM (RBL-2H3 cells; [3]): 100%
3 | CCCCCCCCCCCCCCCC(=O)N[C@@H](CO)[C@@H](O)c1ccccc1 [Example 4, N-palmitoyl-[(1S,2S)-(+)-2-amino-1-phenyl-1,3-propanediol]] | 78 µM | 1.05 µM | > 10000 µg/mL | > 10000 µg/mL | scarcely soluble | inhibition at 100 µM (RBL-2H3 cells; [2]): 100%; inhibition at 100 µM (RBL-2H3 cells; [3]): 100%
4 | CCCCCCCCCCCCCCCC(=O)N[C@H](C)[C@@H](O)c1ccccc1 [Example 5, N-palmitoyl-[(1S,2R)-(+)-norephedrine]] | 8 µM | 7.6 µM | > 10000 µg/mL | > 10000 µg/mL | scarcely soluble | inhibition at 30 µM (RBL-2H3 cells; [8]): 82%; inhibition at 100 µM (RBL-2H3 cells; [3]): 100%
5 | CCCCCCCCCCCC(=O)N[C@H](C)[C@@H](O)c1ccccc1 [Example 6, N-lauroyl-[(1S,2R)-(+)-norephedrine]] | 30 µM | 8.8 µM | > 10000 µg/mL | > 10000 µg/mL | scarcely soluble | –
6 | CCCCCCCCCCCCCCCC(=O)N[C@@H](C)[C@H](O)c1ccccc1 [Example 7, N-palmitoyl-[(1R,2S)-(-)-norephedrine]] | 4.7 µM | – | > 10000 µg/mL | > 10000 µg/mL | scarcely soluble | inhibition at 30 µM (RBL-2H3 cells; [8]): 93%; inhibition at 100 µM (RBL-2H3 cells; [3]): 100%
7 | CCCCCCCCCCCC(=O)N[C@@H](C)[C@H](O)c1ccccc1 [Example 8, N-lauroyl-[(1R,2S)-(-)-norephedrine]] | 18 µM | – | > 10000 µg/mL | > 10000 µg/mL | scarcely soluble | –
8 | CCCCCCCCCCCCCCCC(=O)N[C@H](CO)Cc1ccccc1 [Example 9, N-palmitoyl-[(S)-(-)-2-amino-3-phenyl-1-propanol]] | – | – | – | – | scarcely soluble | activity at 100 µM (RBL-2H3 cells; [9]): 0%; inhibition at 100 µM (RBL-2H3 cells; [2]): 100%; effect of anandamide co-incubation on the ability to inhibit serotonin release (RBL-2H3 cells): reduces the ability; solubility [1, 10]: > 10000 µg/mL
9 | CCCCCCCCCCCCCCCC(=O)N[C@@H](CO)Cc1ccccc1 [Example 10, N-palmitoyl-[(R)-(+)-2-amino-3-phenyl-1-propanol]] | – | – | – | – | scarcely soluble | activity at 100 µM (RBL-2H3 cells; [9]): 0%; effect of anandamide co-incubation on the ability to inhibit serotonin release (RBL-2H3 cells): reduces the ability; solubility [1, 10]: > 10000 µg/mL
10 | CCCCCCCCCCCC(=O)NCCc1ccc(O)cc1 [Example 11, N-(p-hydroxyphenylethyl)-lauroylamide] | 26 µM | – | > 10000 µg/mL | > 10000 µg/mL | scarcely soluble | –
11 | CCCCCCCCCCCC(=O)NCCCO [Example 12, N-(3-hydroxypropyl)-lauroylamide] | 44 µM | 1.1 µM | > 10000 µg/mL | > 10000 µg/mL | scarcely soluble | inhibition at 100 µM (RBL-2H3 cells; [2]): 86%; inhibition at 100 µM (RBL-2H3 cells; [3]): 100%; IC50 (RBL-2H3 cells; [11]): 29 µM; IC50 (RBL-2H3 cells; read-out: ED50, inhibition of 3H-serotonin release, - anandamide (Table 5), 15 min): 1.1 µM
12 | O=C(/C=C/CCCCCCCCC(=O)NCCCO)NCCCO [Example 13, N,N'-bis(3-hydroxypropyl)-trans-2-dodecenediamide] | – | 32 µM | > 5000 µg/mL | – | scarcely soluble | inhibition at 200 µM (RBL-2H3 cells; Rattus norvegicus, RBL-2H3, read-out: 3H-serotonin release inhibition %, 0.2% DMSO, 200 μM (Table 8)): 65%
13 | CCCCCCCCCCCCCCCC(=O)N(C)CCO [Example 14, N-methyl-N-(2-hydroxyethyl)-palmitoylamide] | – | – | > 10000 µg/mL | – | scarcely soluble | solubility [1, 12]: > 10000 µg/mL
14 | CCCCCCCCCCCCCCCC(=O)NC(CO)CO [Example 15, 2-(N-palmitoylamino)-1,3-propandiol] | – | – | > 5000 µg/mL | > 5000 µg/mL | scarcely soluble | –
15 | CCCCCCCCCCCCCCCC(=O)NCCOP(=O)(O)OCC(O)CO (centres unmarked) [Example 16, N-palmitoylethanolamine glycerophosphate] | – | – | > 10000 µg/mL | – | scarcely soluble | solubility ([1]; phosphate buffer, pH 7.4, aqueous buffer): > 1000 µg/mL
16 | O=C(/C=C/CCCCCCCCC(=O)NCCCCO)NCCCCO [Example 17, N,N'-bis(4-hydroxybutyl)-trans-2-dodecendiamide] | – | – | > 5000 µg/mL | – | scarcely soluble | –
17 | CCCCCCCCCCCC(=O)NCCCCO [Example 18, N-(4-hydroxybutyl)-lauroylamide] | 63 µM | – | > 10000 µg/mL | > 10000 µg/mL | scarcely soluble | –
18 | CCCCCCCC/C=C\CCCCCCCC(=O)NCc1ccc(O)c(OC)c1 [Example 20, N-(4-hydroxy-3-methoxybenzyl)-oleoylamide] | 6.3 µM | – | > 10000 µg/mL | > 10000 µg/mL | scarcely soluble | –
19 | CCCCCCCCCCCCCCCC(=O)NCc1ccc(O)c(OC)c1 [Example 21, N-(4-hydroxy-3-methoxybenzyl)-palmitoylamide] | 1.5 µM | – | > 10000 µg/mL | > 10000 µg/mL | scarcely soluble | –
20 | CCCCCCCCCCCCCCCC(=O)NCCCO [Example 24, N-(3-hydroxypropyl)-palmitamide] | – | 7.2 µM | > 3000 µg/mL | – | scarcely soluble | activity at 60 µM (RBL-2H3 cells; Rattus norvegicus, RBL-2H3, 0.25 h, 60 μM, 0.1% DMSO and 0.1% ethanol (Table 3), read-out: 3H-serotonin net release (%)): 67%; inhibition at 60 µM (RBL-2H3 cells; Rattus norvegicus, RBL-2H3, read-out: 3H-serotonin release inhibition %, 0.2% DMSO, 60 μM (Table 8)): 40%; inhibition at 100 µM (RBL-2H3 cells; [3]): 88%; solubility [1, 12]: > 10000 µg/mL
21 | O=C(/C=C/CCCCCCCCC(=O)N1CCOCC1)N1CCOCC1 [Example 38, 1,10-bis-morpholinylcarbonyl-trans-1-decene] | – | – | > 10000 µg/mL | > 10000 µg/mL | scarcely soluble | –
22 | CCCCC/C=C\C/C=C\CCCCCCCC(=O)NCCO [N-(2-hydroxyethyl)-linoleylamide, reference compound] | – | – | – | – | – | activity at 100 µM (RBL-2H3 cells; [13]): 100%
23 | Cc1c(C(=O)c2cccc3ccccc23)c2cccc3c2n1[C@H](CN1CCOCC1)CO3 [WIN 55,212-2, reference compound] | – | – | – | – | – | 3H-serotonin release inhibition (%) (RBL-2H3 cells; 5 μm, (+) N-(2-hydroxyethyl)-palmitoleylamide (Example 19) (Table 7)): 8%; 3H-serotonin release inhibition (%) (RBL-2H3 cells; 5 μm, (-) N-(2-hydroxyethyl)-palmitoleylamide (Table 7)): 8%; 3H-serotonin release inhibition (%) (RBL-2H3 cells; 10 μm, (+) N-(2-hydroxyethyl)-palmitoleylamide (Example 19) (Table 7)): 10%; 3H-serotonin release inhibition (%) (RBL-2H3 cells; 10 μm, (-) N-(2-hydroxyethyl)-palmitoleylamide (Table 7)): 12%; 3H-serotonin release inhibition (%) (RBL-2H3 cells; 50 μm, (+) N-(2-hydroxyethyl)-palmitoleylamide (Example 19) (Table 7)): 24%; 3H-serotonin release inhibition (%) (RBL-2H3 cells; 50 μm, (-) N-(2-hydroxyethyl)-palmitoleylamide (Table 7)): 76%; 3H-serotonin release inhibition (%) (RBL-2H3 cells; 70 μm, (+) N-(2-hydroxyethyl)-palmitoleylamide (Example 19) (Table 7)): 30%; 3H-serotonin release inhibition (%) (RBL-2H3 cells; 70 μm, (-) N-(2-hydroxyethyl)-palmitoleylamide (Table 7)): 96%; 3H-serotonin release inhibition (%) (RBL-2H3 cells; 100 μm, (+) N-(2-hydroxyethyl)-palmitoleylamide (Example 19) (Table 7)): 56%; 3H-serotonin release inhibition (%) (RBL-2H3 cells; 100 μm, (-) N-(2-hydroxyethyl)-palmitoleylamide (Table 7)): 98%; activity at 50 µM (RBL-2H3 cells; [13]): 0%; IC50 (RBL-2H3 cells; [14]): 6.4 µM; inhibition at 30 µM (RBL-2H3 cells; Rattus norvegicus, RBL-2H3, read-out: 3H-serotonin net release inhibition (%), 30 μM, + anandamide (12.5 μM) (Table 4)): 36%; inhibition at 30 µM (RBL-2H3 cells; Rattus norvegicus, RBL-2H3, read-out: 3H-serotonin net release inhibition (%), 30 μM, - anandamide (Table 4)): 100%; 3H-serotonin net release inhibition (%) (RBL-2H3 cells; WIN 55,212-2 30 μm alone (DNP.HSA line, + WIN) (Table 6)): 69%; IC50 (RBL-2H3 cells; [11]): 40 µM; functional effect following receptor activation (serotonin release) (RBL-2H3 cells): able to inhibit, in a concentration-dependent way, RBL cells immunogenic activation
24 | CCCCC/C=C\C/C=C\C/C=C\C/C=C\CCCC(=O)O [arachidonic acid, reference compound] | – | – | – | – | – | inhibition at 12.5 µM (RBL-2H3 cells; [15]): 59%; inhibition at 12.5 µM (RBL-2H3 cells; [16]): 4%
25 | NCCO [ethanolamine, reference compound] | – | – | – | – | – | inhibition at 12.5 µM (RBL-2H3 cells; [15]): 72%; inhibition at 12.5 µM (RBL-2H3 cells; [16]): 6%
26 | CCCCCc1cc(O)c2c(c1)OC(C)(C)[C@@H]1CC=C(C)C[C@@H]21 [Δ8-THC, Δ8-tetrahydrocannabinol, reference compound] | – | – | – | – | – | activity at 25 µM (RBL-2H3 cells; [13]): 0%; IC50 (RBL-2H3 cells; [14]): 5 µM; inhibition at 25 µM (RBL-2H3 cells; Rattus norvegicus, RBL-2H3, read-out: 3H-serotonin net release inhibition (%), 25 μM, - anandamide (Table 4)): 100%; functional effect following receptor activation (serotonin release) (RBL-2H3 cells): able to inhibit, in a concentration-dependent way, RBL cells immunogenic activation
